Data: ChEMBL document CHEMBL5370535, “Thiazolyl hydrazineylidenyl indolones as unique potential multitargeting broad-spectrum antimicrobial agents” (Eur J Med Chem, 2023)
Converted amounts (≈) assume the structure as drawn.

Key:
Format in all cases: functional
Staphylococcus aureus [1] = assay: Antibacterial activity against methicillin-resistant Staphylococcus aureus assessed as bacterial growth inhibition incubated for 24 hrs by CLSI based two serial dilution assay
Enterococcus faecalis = assay: Antibacterial activity against Enterococcus faecalis assessed as bacterial growth inhibition incubated for 24 hrs by CLSI based two serial dilution assay
Staphylococcus aureus [2] = assay: Antibacterial activity against Staphylococcus aureus assessed as bacterial growth inhibition incubated for 24 hrs by CLSI based two serial dilution assay
Staphylococcus aureus [3] = assay: Antibacterial activity against Staphylococcus aureus 25923 assessed as bacterial growth inhibition incubated for 24 hrs by CLSI based two serial dilution assay
Staphylococcus aureus [4] = assay: Antibacterial activity against Staphylococcus aureus 29213 assessed as bacterial growth inhibition incubated for 24 hrs by CLSI based two serial dilution assay
Klebsiella pneumoniae = assay: Antibacterial activity against Klebsiella pneumoniae assessed as bacterial growth inhibition incubated for 24 hrs by CLSI based two serial dilution assay
Escherichia coli [5] = assay: Antibacterial activity against Escherichia coli assessed as bacterial growth inhibition incubated for 24 hrs by CLSI based two serial dilution assay
Escherichia coli [6] = assay: Antibacterial activity against Escherichia coli 25922 assessed as bacterial growth inhibition incubated for 24 hrs by CLSI based two serial dilution assay
Pseudomonas aeruginosa [7] = assay: Antibacterial activity against Pseudomonas aeruginosa assessed as bacterial growth inhibition incubated for 24 hrs by CLSI based two serial dilution assay
Pseudomonas aeruginosa [8] = assay: Antibacterial activity against Pseudomonas aeruginosa ATCC 27853 assessed as bacterial growth inhibition incubated for 24 hrs by CLSI based two serial dilution assay
Acinetobacter baumannii = assay: Antibacterial activity against Acinetobacter baumannii assessed as bacterial growth inhibition incubated for 24 hrs by CLSI based two serial dilution assay
Candida albicans [9] = assay: Antifungal activity against Candida albicans assessed as inhibition of fungal growth incubated for 24 hrs by CLSI based two serial dilution assay
Candida albicans [10] = assay: Antifungal activity against Candida albicans ATCC 90023 assessed as inhibition of fungal growth incubated for 24 hrs by CLSI based two serial dilution assay
Candida tropicalis = assay: Antifungal activity against Candida tropicalis assessed as inhibition of fungal growth incubated for 24 hrs by CLSI based two serial dilution assay
Candida parapsilosis = assay: Antifungal activity against Candida parapsilosis ATCC 22019 assessed as inhibition of fungal growth incubated for 24 hrs by CLSI based two serial dilution assay; details: Lodderomyces parapsilosis
Aspergillus fumigatus = assay: Antifungal activity against Aspergillus fumigatus assessed as inhibition of fungal growth incubated for 24 hrs by CLSI based two serial dilution assay

Compound	MIC (Staphylococcus aureus [1]) [µM]	MIC (Enterococcus faecalis) [µM]	MIC (Staphylococcus aureus [2]) [µM]	MIC (Staphylococcus aureus [3]) [µM]	MIC (Staphylococcus aureus [4]) [µM]	MIC (Klebsiella pneumoniae) [µM]	MIC (Escherichia coli [5]) [µM]	MIC (Escherichia coli [6]) [µM]	MIC (Pseudomonas aeruginosa [7]) [µM]	MIC (Pseudomonas aeruginosa [8]) [µM]	MIC (Acinetobacter baumannii) [µM]	MIC (Candida albicans [9]) [µM]	MIC (Candida albicans [10]) [µM]	MIC (Candida tropicalis) [µM]	MIC (Candida parapsilosis) [µM]	MIC (Aspergillus fumigatus) [µM]
O=C1/C(=N\Nc2nccs2)c2ccccc2N1Cc1ccc(Cl)cc1	64 (≈ 23.6 µg/mL)	64 (≈ 23.6 µg/mL)	4 (≈ 1.48 µg/mL)	4 (≈ 1.48 µg/mL)	4 (≈ 1.48 µg/mL)	32 (≈ 11.8 µg/mL)	128 (≈ 47.2 µg/mL)	32 (≈ 11.8 µg/mL)	16 (≈ 5.9 µg/mL)	128 (≈ 47.2 µg/mL)	64 (≈ 23.6 µg/mL)	16 (≈ 5.9 µg/mL)	32 (≈ 11.8 µg/mL)	16 (≈ 5.9 µg/mL)	4 (≈ 1.48 µg/mL)	16 (≈ 5.9 µg/mL)
CCCCN1C(=O)/C(=N\Nc2nccs2)c2c(Cl)cc(Cl)cc21	1 (≈ 0.369 µg/mL)	4 (≈ 1.48 µg/mL)	2 (≈ 0.739 µg/mL)	1 (≈ 0.369 µg/mL)	2 (≈ 0.739 µg/mL)	1 (≈ 0.369 µg/mL)	32 (≈ 11.8 µg/mL)	1 (≈ 0.369 µg/mL)	2 (≈ 0.739 µg/mL)	512 (≈ 189 µg/mL)	512 (≈ 189 µg/mL)	0.5 (≈ 0.185 µg/mL)	2 (≈ 0.739 µg/mL)	1 (≈ 0.369 µg/mL)	256 (≈ 94.5 µg/mL)	128 (≈ 47.3 µg/mL)
O=C1/C(=N\Nc2nccs2)c2ccccc2N1Cc1ccc(Cl)cc1Cl	128 (≈ 51.6 µg/mL)	64 (≈ 25.8 µg/mL)	4 (≈ 1.61 µg/mL)	4 (≈ 1.61 µg/mL)	2 (≈ 0.807 µg/mL)	128 (≈ 51.6 µg/mL)	64 (≈ 25.8 µg/mL)	128 (≈ 51.6 µg/mL)	64 (≈ 25.8 µg/mL)	64 (≈ 25.8 µg/mL)	64 (≈ 25.8 µg/mL)	32 (≈ 12.9 µg/mL)	16 (≈ 6.45 µg/mL)	64 (≈ 25.8 µg/mL)	32 (≈ 12.9 µg/mL)	16 (≈ 6.45 µg/mL)
CCCCCCCCCCN1C(=O)/C(=N\Nc2nccs2)c2ccccc21	512 (≈ 197 µg/mL)	4 (≈ 1.54 µg/mL)	512 (≈ 197 µg/mL)	512 (≈ 197 µg/mL)	512 (≈ 197 µg/mL)	256 (≈ 98.4 µg/mL)	512 (≈ 197 µg/mL)	64 (≈ 24.6 µg/mL)	64 (≈ 24.6 µg/mL)	512 (≈ 197 µg/mL)	512 (≈ 197 µg/mL)	512 (≈ 197 µg/mL)	256 (≈ 98.4 µg/mL)	64 (≈ 24.6 µg/mL)	256 (≈ 98.4 µg/mL)	512 (≈ 197 µg/mL)
C=CCN1C(=O)/C(=N\Nc2nccs2)c2ccccc21	512 (≈ 146 µg/mL)	64 (≈ 18.2 µg/mL)	64 (≈ 18.2 µg/mL)	128 (≈ 36.4 µg/mL)	128 (≈ 36.4 µg/mL)	256 (≈ 72.8 µg/mL)	64 (≈ 18.2 µg/mL)	512 (≈ 146 µg/mL)	512 (≈ 146 µg/mL)	16 (≈ 4.55 µg/mL)	512 (≈ 146 µg/mL)	256 (≈ 72.8 µg/mL)	512 (≈ 146 µg/mL)	32 (≈ 9.1 µg/mL)	128 (≈ 36.4 µg/mL)	4 (≈ 1.14 µg/mL)
CCCCCCCCCCCCN1C(=O)/C(=N\Nc2nccs2)c2ccccc21	128 (≈ 52.8 µg/mL)	4 (≈ 1.65 µg/mL)	32 (≈ 13.2 µg/mL)	4 (≈ 1.65 µg/mL)	4 (≈ 1.65 µg/mL)	32 (≈ 13.2 µg/mL)	64 (≈ 26.4 µg/mL)	32 (≈ 13.2 µg/mL)	16 (≈ 6.6 µg/mL)	16 (≈ 6.6 µg/mL)	64 (≈ 26.4 µg/mL)	32 (≈ 13.2 µg/mL)	128 (≈ 52.8 µg/mL)	16 (≈ 6.6 µg/mL)	64 (≈ 26.4 µg/mL)	32 (≈ 13.2 µg/mL)
O=C(N[C@H](CO)[C@H](O)c1ccc([N+](=O)[O-])cc1)C(Cl)Cl [CHLORAMPHENICOL]	16 (≈ 5.17 µg/mL)	8 (≈ 2.59 µg/mL)	8 (≈ 2.59 µg/mL)	8 (≈ 2.59 µg/mL)	4 (≈ 1.29 µg/mL)	8 (≈ 2.59 µg/mL)	32 (≈ 10.3 µg/mL)	16 (≈ 5.17 µg/mL)	32 (≈ 10.3 µg/mL)	8 (≈ 2.59 µg/mL)	16 (≈ 5.17 µg/mL)	–	–	–	–	–
O=C1/C(=N\Nc2nccs2)c2ccccc2N1Cc1ccccc1Cl	8 (≈ 2.95 µg/mL)	32 (≈ 11.8 µg/mL)	8 (≈ 2.95 µg/mL)	64 (≈ 23.6 µg/mL)	64 (≈ 23.6 µg/mL)	512 (≈ 189 µg/mL)	256 (≈ 94.4 µg/mL)	256 (≈ 94.4 µg/mL)	32 (≈ 11.8 µg/mL)	512 (≈ 189 µg/mL)	512 (≈ 189 µg/mL)	16 (≈ 5.9 µg/mL)	4 (≈ 1.48 µg/mL)	16 (≈ 5.9 µg/mL)	4 (≈ 1.48 µg/mL)	16 (≈ 5.9 µg/mL)
CCCCN1C(=O)/C(=N\Nc2nccs2)c2ccc(Br)cc21	1 (≈ 0.379 µg/mL)	4 (≈ 1.52 µg/mL)	1 (≈ 0.379 µg/mL)	0.5 (≈ 0.19 µg/mL)	4 (≈ 1.52 µg/mL)	0.5 (≈ 0.19 µg/mL)	0.5 (≈ 0.19 µg/mL)	16 (≈ 6.07 µg/mL)	1 (≈ 0.379 µg/mL)	0.5 (≈ 0.19 µg/mL)	0.5 (≈ 0.19 µg/mL)	0.5 (≈ 0.19 µg/mL)	1 (≈ 0.379 µg/mL)	1 (≈ 0.379 µg/mL)	0.5 (≈ 0.19 µg/mL)	0.5 (≈ 0.19 µg/mL)
C=CC1=C(C(=O)O)N2C(=O)[C@@H](NC(=O)/C(=N\O)c3csc(N)n3)[C@H]2SC1 [CEFDINIR]	1 (≈ 0.395 µg/mL)	2 (≈ 0.791 µg/mL)	1 (≈ 0.395 µg/mL)	0.5 (≈ 0.198 µg/mL)	0.5 (≈ 0.198 µg/mL)	0.5 (≈ 0.198 µg/mL)	1 (≈ 0.395 µg/mL)	2 (≈ 0.791 µg/mL)	0.5 (≈ 0.198 µg/mL)	1 (≈ 0.395 µg/mL)	2 (≈ 0.791 µg/mL)	–	–	–	–	–
OC(Cn1cncn1)(Cn1cncn1)c1ccc(F)cc1F [FLUCONAZOLE]	–	–	–	–	–	–	–	–	–	–	–	4 (≈ 1.23 µg/mL)	2 (≈ 0.613 µg/mL)	8 (≈ 2.45 µg/mL)	4 (≈ 1.23 µg/mL)	256 (≈ 78.4 µg/mL)
